Reference: publication PMC4817054, “Expansion of a bitter taste receptor family in a polyphagous insect herbivore” (Scientific Reports, 2016)

System: HarmGR195
Conditions: agonist; HarmGR195 expressed alone; SEM, N = 3; HBSS

O=C(O)[C@@H]1CCCN1 [proline]
EC50: 43 ± 7 mM
